Test results reported in ChEMBL document CHEMBL5034023, “Development of Multifunctional and Orally Active Cyclic Peptide Agonists of Opioid/Neuropeptide FF Receptors that Produce Potent, Long-Lasting, and Peripherally Restricted Antinociception with Diminished Side Effects” (J Med Chem, 2021).
Activity calls are given as the source filed them. The rule behind the calls is not given here. Bridge positions count the residues as written; N and C are the ends. Square brackets hold non-standard residues; d marks the D form. Peptide text beside a SMILES is read from it. NMeF = CN[C@@H](Cc1ccccc1)C(=O)O; dOrn = NCCC[C@@H](N)C(=O)O

Key:
[1] = biological target: Kappa-type opioid receptor (Homo sapiens, UniProt P41145); type: functional, cell-based, HEK293-A
[2] = biological target: T1, Delta-type opioid receptor (Homo sapiens, UniProt P41143); experiment: Agonist activity at DOR (unknown origin) expressed in HEK293-A cells assessed as inhibition of forskolin-induced cAMP accumulation preincubated for 30 mins in presence of 3-isobutyl-1-methylxanthine followed by forskolin and compound addition by competitive PKA binding assay; type: functional, cell-based
[3] = biological target: T1, Delta-type opioid receptor; experiment: Agonist activity at DOR (unknown origin) expressed in HEK293-A cells assessed as inhibition of forskolin-induced cAMP accumulation preincubated for 30 mins in presence of 3-isobutyl-1-methylxanthine followed by forskolin and compound addition by competitive PKA binding assay relative to control; type: functional, cell-based; settings: filed as agonist
[4] = biological target: T2, Neuropeptide FF receptor 1 (Homo sapiens, UniProt Q9GZQ6); experiment: Agonist activity at NPFF1R (unknown origin) expressed in HEK293-A cells assessed as inhibition of forskolin-induced cAMP accumulation preincubated for 30 mins in presence of 3-isobutyl-1-methylxanthine followed by forskolin and compound addition by competitive PKA binding assay; type: functional, cell-based
[5] = biological target: T2, Neuropeptide FF receptor 1; experiment: Agonist activity at NPFF1R (unknown origin) expressed in HEK293-A cells assessed as inhibition of forskolin-induced cAMP accumulation by measuring maximal efficacy preincubated for 30 mins in presence of 3-isobutyl-1-methylxanthine followed by forskolin and compound addition by competitive PKA binding assay relative to control; type: functional, cell-based; settings: filed as agonist
[6] = biological target: T3, Neuropeptide FF receptor 2 (Homo sapiens, UniProt Q9Y5X5); experiment: Agonist activity at NPFF2R (unknown origin) expressed in HEK293-A cells assessed as inhibition of forskolin-induced cAMP accumulation preincubated for 30 mins in presence of 3-isobutyl-1-methylxanthine followed by forskolin and compound addition by competitive PKA binding assay; type: functional, cell-based
[7] = biological target: T3, Neuropeptide FF receptor 2; experiment: Agonist activity at NPFF2R (unknown origin) expressed in HEK293-A cells assessed as inhibition of forskolin-induced cAMP accumulation by measuring maximal efficacy preincubated for 30 mins in presence of 3-isobutyl-1-methylxanthine followed by forskolin and compound addition by competitive PKA binding assay relative to control; type: functional, cell-based; settings: filed as agonist
[8] = Metabolic stability in mouse plasma assessed as degradation half life at 0.01 M measured up to 360 mins; type: ADME, cell-free
Mus musculus [9] = experiment: Antinociceptive activity against Kunming mouse model of thermal-induced nociception assessed as peripheral analgesia administered subcutaneously by tail-flick test; type: functional; settings: sc
Mus musculus [10] = experiment: Antinociceptive activity against Kunming mouse model of thermal-induced nociception assessed as duration of analgesic effect administered subcutaneously by tail-flick test; type: functional
Mus musculus [11] = experiment: Antinociceptive activity in Kunming mouse assessed as analgesic tolerance administered subcutaneously once daily for 8 days by tail flick test; type: functional, organism-based; settings: time 8.0 day
Mus musculus [12] = experiment: Antinociceptive activity against Kunming mouse model of thermal-induced nociception assessed as maximum possible effect at 8681 nmol/kg, po measured after 20 min by tail flick test relative to control; type: functional
Mus musculus [13] = experiment: Antinociceptive activity against Kunming mouse model of thermal-induced nociception assessed as maximum possible effect at 8681 nmol/kg, po measured after 30 min by tail flick test relative to control; type: functional; settings: 0.5 h
Mus musculus [14] = experiment: Antinociceptive activity against Kunming mouse model of thermal-induced nociception assessed as maximum possible effect at 8681 nmol/kg, po measured after 60 min by tail flick test relative to control; type: functional; settings: 1 h
Mu-type opioid receptor = Mu-type opioid receptor (Homo sapiens, UniProt P35372)
Mus musculus [15] = experiment: Potency index, ratio of test compound ED50 to DN-9 ED50 for antinociceptive activity against Kunming mouse model of thermal-induced nociception assessed as peripheral analgesia administered subcutaneously by tail-flick test; type: functional
Mus musculus [16] = experiment: Antinociceptive activity against Kunming mouse model of thermal-induced nociception assessed as maximum possible effect at 37915 nmol/kg, po measured after 20 min by tail flick test relative to control; type: functional
Mus musculus [17] = experiment: Antinociceptive activity against Kunming mouse model of thermal-induced nociception assessed as maximum possible effect at 37915 nmol/kg, po measured after 30 min by tail flick test relative to control; type: functional; settings: 0.5 h
Mus musculus [18] = experiment: Antinociceptive activity against Kunming mouse model of thermal-induced nociception assessed as maximum possible effect at 37915 nmol/kg, po measured after 60 min by tail flick test relative to control; type: functional; settings: 1 h
Mus musculus [19] = experiment: Antinociceptive activity against Kunming mouse model of thermal-induced nociception assessed as prolongation of tail-flick latency period at 38 umol/kg, po measured up to 240 mins by tail-flick test; type: functional, organism-based; settings: dose 38.0 µmol/kg, time min <=240
Mus musculus [20] = experiment: Antinociceptive activity against Kunming mouse model of thermal-induced nociception assessed as maximum possible effect at 86.8 nmol/kg, po measured after 20 min by tail flick test relative to control; type: functional
Mus musculus [21] = experiment: Antinociceptive activity against Kunming mouse model of thermal-induced nociception assessed as maximum possible effect at 86.8 nmol/kg, po measured after 30 min by tail flick test relative to control; type: functional; settings: 0.5 h
Mus musculus [22] = experiment: Antinociceptive activity against Kunming mouse model of thermal-induced nociception assessed as maximum possible effect at 86.8 nmol/kg, po measured after 60 min by tail flick test relative to control; type: functional; settings: 1 h
[23] = biological target: T1, Delta-type opioid receptor; experiment: Potency index, ratio of DN-9 EC50 to test compound EC50 for agonist activity at DOR (unknown origin) expressed in HEK293-A cells assessed as inhibition of forskolin-induced cAMP accumulation preincubated for 30 mins in presence of 3-isobutyl-1-methylxanthine followed by forskolin and compound addition by competitive PKA binding assay; type: functional, cell-based
Mus musculus [24] = experiment: Antinociceptive activity against Kunming mouse model of thermal-induced nociception assessed as maximum possible effect at 87.9 nmol/kg, po measured after 20 min by tail flick test relative to control; type: functional
Mus musculus [25] = experiment: Antinociceptive activity against Kunming mouse model of thermal-induced nociception assessed as maximum possible effect at 87.9 nmol/kg, po measured after 30 min by tail flick test relative to control; type: functional; settings: 0.5 h
Mus musculus [26] = experiment: Antinociceptive activity against Kunming mouse model of thermal-induced nociception assessed as maximum possible effect at 87.9 nmol/kg, po measured after 60 min by tail flick test relative to control; type: functional; settings: 1 h
Mus musculus [27] = experiment: Antinociceptive activity against Kunming mouse model of thermal-induced nociception assessed as maximum possible effect at 264201 nmol/kg, po measured after 20 min by tail flick test relative to control; type: functional
Mus musculus [28] = experiment: Antinociceptive activity against Kunming mouse model of thermal-induced nociception assessed as maximum possible effect at 264201 nmol/kg, po measured after 30 min by tail flick test relative to control; type: functional; settings: 0.5 h
Mus musculus [29] = experiment: Antinociceptive activity against Kunming mouse model of thermal-induced nociception assessed as maximum possible effect at 264201 nmol/kg, po measured after 60 min by tail flick test relative to control; type: functional; settings: 1 h
Mus musculus [30] = experiment: Antinociceptive activity against Kunming mouse model of thermal-induced nociception assessed as prolongation of tail-flick latency period at 264 umol/kg, po measured up to 240 mins by tail-flick test; type: functional, organism-based; settings: dose 264.0 µmol/kg, time min <=240

Chain of Kappa-type opioid receptor (P41145 whole entry): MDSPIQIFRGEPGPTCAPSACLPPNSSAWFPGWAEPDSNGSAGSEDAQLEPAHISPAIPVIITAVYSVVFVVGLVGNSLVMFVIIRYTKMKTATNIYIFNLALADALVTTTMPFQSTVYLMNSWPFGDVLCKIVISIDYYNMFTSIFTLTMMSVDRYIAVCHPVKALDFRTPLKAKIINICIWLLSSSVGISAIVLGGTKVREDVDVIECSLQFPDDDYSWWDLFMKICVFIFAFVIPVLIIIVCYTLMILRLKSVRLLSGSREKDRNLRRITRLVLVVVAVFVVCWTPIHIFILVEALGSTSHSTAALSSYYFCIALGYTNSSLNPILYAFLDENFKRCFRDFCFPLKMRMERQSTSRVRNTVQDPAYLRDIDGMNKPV
T3 sequence (Q9Y5X5 whole entry): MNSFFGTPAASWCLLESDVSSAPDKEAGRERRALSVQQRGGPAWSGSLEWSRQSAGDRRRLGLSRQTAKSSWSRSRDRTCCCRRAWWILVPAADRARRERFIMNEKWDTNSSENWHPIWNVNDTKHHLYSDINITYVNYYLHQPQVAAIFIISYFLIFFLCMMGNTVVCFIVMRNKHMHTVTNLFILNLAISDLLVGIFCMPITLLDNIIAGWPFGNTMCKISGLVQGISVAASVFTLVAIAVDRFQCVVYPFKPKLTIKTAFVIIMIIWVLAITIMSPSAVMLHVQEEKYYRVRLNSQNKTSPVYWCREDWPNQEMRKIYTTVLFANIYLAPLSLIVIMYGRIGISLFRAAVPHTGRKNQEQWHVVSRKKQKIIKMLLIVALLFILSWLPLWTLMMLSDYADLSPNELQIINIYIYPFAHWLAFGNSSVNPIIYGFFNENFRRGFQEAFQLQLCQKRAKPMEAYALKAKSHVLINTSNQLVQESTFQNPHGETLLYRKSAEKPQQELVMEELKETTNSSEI
T1 sequence (P41143 whole entry): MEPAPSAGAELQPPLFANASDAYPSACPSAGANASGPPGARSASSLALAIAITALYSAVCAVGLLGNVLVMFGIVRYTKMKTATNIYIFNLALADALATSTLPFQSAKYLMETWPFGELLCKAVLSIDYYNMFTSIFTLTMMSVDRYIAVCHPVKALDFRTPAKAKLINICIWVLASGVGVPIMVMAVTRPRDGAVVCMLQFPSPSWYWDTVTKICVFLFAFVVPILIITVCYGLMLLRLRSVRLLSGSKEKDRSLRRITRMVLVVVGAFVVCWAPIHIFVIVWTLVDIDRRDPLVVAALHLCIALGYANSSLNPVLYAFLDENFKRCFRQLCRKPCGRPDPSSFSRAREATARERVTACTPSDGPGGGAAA
T2 sequence (Q9GZQ6 whole entry): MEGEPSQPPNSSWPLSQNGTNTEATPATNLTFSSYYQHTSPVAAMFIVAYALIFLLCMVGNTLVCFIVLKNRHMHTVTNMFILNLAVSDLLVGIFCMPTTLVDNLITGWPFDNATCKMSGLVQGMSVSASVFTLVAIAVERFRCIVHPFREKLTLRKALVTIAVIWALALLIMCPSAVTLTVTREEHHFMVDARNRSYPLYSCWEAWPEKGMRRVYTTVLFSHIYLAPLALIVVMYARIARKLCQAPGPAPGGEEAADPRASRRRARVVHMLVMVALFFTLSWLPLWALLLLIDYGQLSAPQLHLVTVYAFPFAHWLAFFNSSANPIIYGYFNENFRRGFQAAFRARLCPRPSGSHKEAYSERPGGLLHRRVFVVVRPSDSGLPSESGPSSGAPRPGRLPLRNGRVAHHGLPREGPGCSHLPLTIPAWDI
Chain of Mu-type opioid receptor (P35372 whole entry): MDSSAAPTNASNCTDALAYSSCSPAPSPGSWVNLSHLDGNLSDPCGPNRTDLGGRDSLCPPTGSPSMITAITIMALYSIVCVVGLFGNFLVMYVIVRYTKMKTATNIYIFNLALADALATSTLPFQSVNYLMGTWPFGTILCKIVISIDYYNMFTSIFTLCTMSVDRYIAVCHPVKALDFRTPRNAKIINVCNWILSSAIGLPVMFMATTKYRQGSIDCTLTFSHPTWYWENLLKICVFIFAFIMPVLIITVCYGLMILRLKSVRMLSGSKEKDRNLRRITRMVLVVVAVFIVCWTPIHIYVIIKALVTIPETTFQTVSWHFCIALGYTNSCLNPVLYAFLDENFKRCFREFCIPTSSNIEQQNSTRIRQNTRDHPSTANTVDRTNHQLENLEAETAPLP

Row | SMILES | EC50 [1] | EC50 [2] | Emax [3] | EC50 [4] | Emax [5] | EC50 ([6]; read-out: EC50) | Emax [7] | half-life at 10000 µM [8] | ED50 (Mus musculus [9]) | Tlast (Mus musculus [10]) | Activity (Mus musculus [11]) | MPE (Mus musculus [12]) | MPE (Mus musculus [13]) | MPE (Mus musculus [14]) | EC50 (Mu-type opioid receptor) | Ratio ED50 (Mus musculus [15]) | other results
1 | CN1C(=O)CNC(=O)[C@@H](NC(=O)[C@@H](N)Cc2ccc(O)cc2)CCCCNC(=O)C[C@@H](C(=O)N2CCC[C@H]2C(=O)N[C@@H](CCC(N)=O)C(=O)N[C@@H](CCCNC(=N)N)C(=O)N[C@@H](Cc2ccccc2)C(N)=O)NC(=O)[C@@H]1Cc1ccccc1 (H-YKG[NMeF]DPQRF-NH2; lactam 2-5) | 320 nM | 28.2 nM | 65.7% | 28.9 nM | 80.6% | 112 nM | 68.1% | 9.9 min | 0.022 µmol/kg | 240 min | inactive | 93.9% | 93.2% | 76.3% | 72.6 nM | – | –
2 | CN1C(=O)CNC(=O)[C@@H](NC(=O)[C@@H](N)Cc2ccc(O)cc2)CCCCNC(=O)C[C@H](C(=O)N2CCC[C@H]2C(=O)N[C@@H](CCC(N)=O)C(=O)N[C@@H](CCCNC(=N)N)C(=O)N[C@@H](Cc2ccccc2)C(N)=O)NC(=O)[C@@H]1Cc1ccccc1 (H-YKG[NMeF][dD]PQRF-NH2; lactam 2-5) | – | 923 nM | 62.2% | 104 nM | 76.2% | 81.5 nM | 62.4% | 6.7 min | 0.0263 µmol/kg | 240 min | inactive | 94.1% | 82.5% | 70.6% | 167 nM | – | –
3 | C[C@@H](NC(=O)[C@@H](N)Cc1ccc(O)cc1)C(=O)NCC(=O)N(C)[C@@H](Cc1ccccc1)C(=O)NCC(=O)N1CCC[C@H]1C(=O)N[C@@H](CCC(N)=O)C(=O)N[C@@H](CCCNC(=N)N)C(=O)N[C@@H](Cc1ccccc1)C(N)=O (H-Y[dA]G[NMeF]GPQRF-NH2) | – | – | – | – | – | – | – | 21.8 min | 0.216 µmol/kg | 90 min | inactive | – | – | – | – | 1 | MPE (Mus musculus [16]): 75.6%; MPE (Mus musculus [17]): 63.1%; MPE (Mus musculus [18]): 22.8%; Activity (Mus musculus [19]): Active
4 | CN1C(=O)CNC(=O)[C@H](NC(=O)[C@@H](N)Cc2ccc(O)cc2)CC(=O)NCCCC[C@@H](C(=O)N2CCC[C@H]2C(=O)N[C@@H](CCC(N)=O)C(=O)N[C@@H](CCCNC(=N)N)C(=O)N[C@@H](Cc2ccccc2)C(N)=O)NC(=O)[C@@H]1Cc1ccccc1 (H-Y[dD]G[NMeF]KPQRF-NH2; lactam 2-5) | 81.3 nM | 74.2 nM | 56% | 222 nM | 77.6% | 303 nM | 71.8% | 10.8 min | 0.0137 µmol/kg | 240 min | inactive | – | – | – | 66.3 nM | 15.7 | EC50 ([6]; read-out: pEC50 (converted)): 309 nM; MPE (Mus musculus [20]): 88.7%; MPE (Mus musculus [21]): 95.6%; MPE (Mus musculus [22]): 80.5%; Ratio EC50 [23]: 7
5 | CN1C(=O)CNC(=O)[C@H](NC(=O)[C@@H](N)Cc2ccc(O)cc2)CCCCNC(=O)C[C@H](C(=O)N2CCC[C@H]2C(=O)N[C@@H](CCC(N)=O)C(=O)N[C@@H](CCCNC(=N)N)C(=O)N[C@@H](Cc2ccccc2)C(N)=O)NC(=O)[C@@H]1Cc1ccccc1 (H-Y[dK]G[NMeF][dD]PQRF-NH2; lactam 2-5) | – | 581 nM | 60.3% | 528 nM | 75.6% | 190 nM | 59% | 18.7 min | 0.0201 µmol/kg | 240 min | inactive | 92.6% | 94.1% | 74.1% | 586 nM | – | –
6 | CN1C(=O)CNC(=O)[C@H](NC(=O)[C@@H](N)Cc2ccc(O)cc2)CCCNC(=O)C[C@@H](C(=O)N2CCC[C@H]2C(=O)N[C@@H](CCC(N)=O)C(=O)N[C@@H](CCCNC(=N)N)C(=O)N[C@@H](Cc2ccccc2)C(N)=O)NC(=O)[C@@H]1Cc1ccccc1 (H-Y[dOrn]G[NMeF]DPQRF-NH2; lactam 2-5) | 139 nM | 659 nM | 51.9% | 439 nM | 72.4% | 133 nM | 52.8% | 41.1 min | 0.0132 µmol/kg | 240 min | inactive | – | – | – | 168 nM | 16.4 | MPE (Mus musculus [24]): 80.8%; MPE (Mus musculus [25]): 96%; MPE (Mus musculus [26]): 70.7%
7 | CN1CC[C@]23c4c5ccc(O)c4O[C@H]2[C@@H](O)C=C[C@H]3[C@H]1C5 [MORPHINE] | – | – | – | – | – | – | – | – | – | – | – | – | – | – | – | – | MPE (Mus musculus [27]): 75.3%; MPE (Mus musculus [28]): 87.6%; MPE (Mus musculus [29]): 63%; Activity (Mus musculus [30]): Active
